# From patent publication US4410518A, “N-Phosphinoaminosulfinylcarbamate esters and their use as insecticides” (priority 1982, dated 1983)
# Where two headings read alike, the source gives them in different places.
# Experiments:
# [1] = mammalian toxicity in mice (oral); conditions: mouse, in vivo, corn oil carrier, Swiss white mice
# Method: Mammalian toxicity was determined against Swiss white mice. The test compound was applied orally using corn oil as the carrier. Results are given as LD50 in mg of compound per kg body weight.
# (§1) In that table the term "LD50 " represents the dose needed to kill 50% of the test animals. In interpreting the values in Table 1 below, the lower the value for LD50 for house flies, the greater the insecticidal potency or toxicity of that particular compound. On the other hand, the higher the value of LD50 for mice, the lower the mammalian toxicity or the greater is the mammalian safety of such compound.
# [2] = system: house flies, Musca domestica; test: insecticidal activity against house flies (topical, 24 h mortality); format: in vivo; conditions: for LD50: Musca domestica, read-out: House flies LD50
# Method: Representative carbamate esters of the invention were tested for insecticidal activity against house flies, Musca domestica. Stock 1% concentrated solutions of each of the test compounds were made in acetone, and such solutions diluted with acetone to a concentration of 0.001-0.1%. House flies were treated topically on the notum by 1 μl of each of the diluted acetone solutions and percent mortality was counted 24 hours after application. The insects were held at a constant temperature of 60° F. Results are given in μg/g.
# as §1
# [3] = system: house flies, Musca domestica; conditions: 'is known to have', no unit printed beside the value; cited from earlier work
# [4] = topical on the notum, 1 μl acetone solution, 24 hours after application
SMILES,LD50 [1] [mg/kg],"LD50 [2, 4] [mg/kg]",further results
"CCOP(=S)(OCC)N(C)[S+]([O-])N(C)C(=O)Oc1cccc2c1OC(C)(C)C2 (centres unmarked) [Example 1, 2,3-dihydro-2,2-dimethyl-7-benzofuranyl[[(diethoxyphosphinothioyl)methylamino]sulfinyl]methylcarbamate]",65,14,
"CCCN([S+]([O-])N(C)C(=O)Oc1cccc2c1OC(C)(C)C2)P(=S)(OCC)OCC (centres unmarked) [Example 2, 2,3-dihydro-2,2-dimethyl-7-benzofuranyl[[(diethoxyphosphinothioyl)propylamino]sulfinyl]methylcarbamate]",60,16,
"CCCCCCN([S+]([O-])N(C)C(=O)Oc1cccc2c1OC(C)(C)C2)P(=S)(OCC)OCC (centres unmarked) [Example 3, 2,3-dihydro-2,2-dimethyl-7-benzofuranyl[[(diethoxyphosphinothioyl)hexylamino]sulfinyl]methylcarbamate]",140,,"House flies LD50 [2, 4]: 19 µg/g"
"CCCCCCCCCCCCN([S+]([O-])N(C)C(=O)Oc1cccc2c1OC(C)(C)C2)P(=S)(OCC)OCC (centres unmarked) [Example 4, 2,3-dihydro-2,2-dimethyl-7-benzofuranyl[[(diethoxyphosphinothioyl)dodecylamino]sulfinyl]methylcarbamate]",> 1000,,
"CN(C(=O)Oc1cccc2c1OC(C)(C)C2)[S+]([O-])N(C)P1(=S)OCC(C)(C)CO1 (centres unmarked) [Example 5, 2,3-Dihydro-2,2-dimethyl-7-benzofuranyl[[(5,5-dimethyl-2-thioxo-1,3,2-dioxaphosphorinan-2-yl)methylamino]sulfinyl]methylcarbamate]",70,3,
"CCCCCCN([S+]([O-])N(C)C(=O)Oc1cccc2c1OC(C)(C)C2)P1(=S)OCC(C)(C)CO1 (centres unmarked) [Example 6, 2,3-dihydro-2,2-dimethyl-7-benzofuranyl[[(5,5-dimethyl-2-thioxo-1,3,2-dioxaphosphorinan-2-yl)hexylamino]sulfinyl]methylcarbamate]",105,,
"CCOP(=O)(OCC)N(C)[S+]([O-])N(C)C(=O)Oc1cccc2c1OC(C)(C)C2 (centres unmarked) [Example 7, 2,3-dihydro-2,2-dimethyl-7-benzofuranyl[[(diethoxyphosphinyl)methylamino]sulfinyl]methylcarbamate]",,,"LD50 ([2]; topical, 24 h): 19 mg/kg"
"CCCN([S+]([O-])N(C)C(=O)Oc1cccc2c1OC(C)(C)C2)P(=O)(OCC)OCC (centres unmarked) [Example 8, 2,3-dihydro-2,2-dimethyl-7-benzofuranyl[[(diethoxyphosphinyl)propylamino]sulfinyl]methylcarbamate]",100,,
"COP(=S)(OC)N(C)[S+]([O-])N(C)C(=O)ON=C(C)SC (centres unmarked) [Example 9, methyl N-[[[[[(dimethoxyphosphinothioyl)methylamino]sulfinyl]methylamino]carbonyl]oxy]ethanimidothioate]",120,24,
"CCN([S+]([O-])N(C)C(=O)ON=C(C)SC)P(=S)(OC)OC (centres unmarked) [Example 10, methyl N-[[[[[(dimethoxyphosphinothioyl)ethylamino]sulfinyl]methylamino]carbonyl]oxy]ethanimidothioate]",,14,
"CCOP(=S)(OCC)N(C)[S+]([O-])N(C)C(=O)ON=C(C)SC (centres unmarked) [Example 11, methyl N-[[[[[(diethoxyphosphinothioyl)methylamino]sulfinyl]methylamino]carbonyl]oxy]ethanimidothioate]",130,12,
"CCOP(=S)(OCC)N(CC)[S+]([O-])N(C)C(=O)ON=C(C)SC (centres unmarked) [Example 12, methyl N-[[[[[(diethoxyphosphinothioyl)ethylamino]sulfinyl]methylamino]carbonyl]oxy]ethanimidothioate]",,13,
"CCCN([S+]([O-])N(C)C(=O)ON=C(C)SC)P(=S)(OCC)OCC (centres unmarked) [Example 13, methyl N-[[[[[(diethoxyphosphinothioyl)propylamino]sulfinyl]methylamino]carbonyl]oxy]ethanimidothioate]",120,8,
"CCOP(=S)(OCC)N(C(C)C)[S+]([O-])N(C)C(=O)ON=C(C)SC (centres unmarked) [Example 14, methyl N-[[[[[(diethoxyphosphinothioyl)isopropylamino]sulfinyl]methylamino]carbonyl]oxy]ethanimidothioate]",,11,
"CCOP(=S)(OCC)N(C(C)CC)[S+]([O-])N(C)C(=O)ON=C(C)SC (centres unmarked) [Example 15, methyl N-[[[[[(diethoxyphosphinothioyl)sec-butylamino]sulfinyl]methylamino]carbonyl]oxy]ethanimidothioate]",,10,
"CCOP(=S)(OCC)N(C1CCCC1)[S+]([O-])N(C)C(=O)ON=C(C)SC (centres unmarked) [Example 16, methyl N-[[[[[(diethoxyphosphinothioyl)cyclopentylamino]sulfinyl]methylamino]carbonyl]oxy]ethanimidothioate]",,12,
"CCCCCCN([S+]([O-])N(C)C(=O)ON=C(C)SC)P(=S)(OCC)OCC (centres unmarked) [Example 17, Methyl N-[[[[[(diethoxyphosphinothioyl)hexylamino]sulfinyl]methylamino]carbonyl]oxy]ethanimidothioate]",250,23,
"CCOP(=S)(OCC)N(C1CCCCC1)[S+]([O-])N(C)C(=O)ON=C(C)SC (centres unmarked) [Example 18, methyl N-[[[[[(diethoxyphosphinothioyl)cyclohexylamino]sulfinyl]methylamino]carbonyl]oxy]ethanimidothioate]",,18,
"CSC(C)=NOC(=O)N(C)[S+]([O-])N(C)P1(=S)OCC(C)(C)CO1 (centres unmarked) [Example 19, methyl N-[[[[[(5,5-dimethyl-2-thioxo-1,3,2-dioxaphosphorinan-2-yl)(methyl)amino]sulfinyl]methylamino]carbonyl]oxy]ethanimidothioate]",200,58,
"CCN([S+]([O-])N(C)C(=O)ON=C(C)SC)P1(=S)OCC(C)(C)CO1 (centres unmarked) [Example 20, methyl N-[[[[[(5,5-dimethyl-2-thioxo-1,3,2-dioxaphosphorinan-2-yl)(ethyl)amino]sulfinyl]methylamino]carbonyl]oxy]ethanimidothioate]",,120,
"CCOP(=S)(OCC)N(C)[S+]([O-])N(C)C(=O)ON=C(SC)C(=O)N(C)C (centres unmarked) [Example 21, methyl 2-(dimethylamino)-N-[[[[[(diethoxyphosphinothioyl)methylamino]sulfinyl]methylamino]carbonyl]oxy]-2-oxoethanimidothioate]",23,15,
"CCOP(=S)(OCC)N(CC)[S+]([O-])N(C)C(=O)ON=C(SC)C(=O)N(C)C (centres unmarked) [Example 22, methyl 2-(dimethylamino)-N-[[[[[(diethoxyphosphinothioyl)ethylamino]sulfinyl]methylamino]carbonyl]oxy]-2-oxoethanimidothioate]",,18,
"CCOP(=S)(OCC)N(C(C)C)[S+]([O-])N(C)C(=O)ON=C(SC)C(=O)N(C)C (centres unmarked) [Example 23, methyl 2-(dimethylamino)-N-[[[[[(diethoxyphosphinothioyl)isopropylamino]sulfinyl]methylamino]carbonyl]oxy]-2-oxoethanimidothioate]",22,10,
"CCOP(=S)(OCC)N(C1CCCC1)[S+]([O-])N(C)C(=O)ON=C(SC)C(=O)N(C)C (centres unmarked) [Example 24, Methyl 2-(dimethylamino)-N-[[[[[(diethoxyphosphinothioyl)cyclopentylamino]sulfinyl]methylamino]carbonyl]oxy]-2-oxoethanimidothioate]",,16,
"CSC(=NOC(=O)N(C)[S+]([O-])N(C)P1(=S)OCC(C)(C)CO1)C(=O)N(C)C (centres unmarked) [Example 25, methyl 2-(dimethylamino)-N-[[[[[(5,5-dimethyl-2-thioxo-1,3,2-dioxaphosphorinan-2-yl)(methyl)amino]sulfinyl]methylamino]carbonyl]oxy]-2-oxoethanimidothioate]",25,150,
"CNC(=O)Oc1cccc2c1OC(C)(C)C2 [carbofuran, 2,3-dihydro-2,2-dimethyl-7-benzofuranyl methylcarbamate]",,,"LD50 for house flies (carbofuran, known) [3]: about 6.5"
